For experiment [1], the system named is cervix carcinoma (HeLa) cells. Put plainly: MTT cytotoxicity assay, HeLa. Conditions: 48 h, cancer cell, MTT, means of three independent experiments. Format: cell-based, human. The text has this:
(§1) The cells studied were obtained from the American Type Culture Collection (ATCC, Manassas, VA), and included human colorectal adenocarcinoma (DLD-1), cervix carcinoma (HeLa), breast adenocarcinoma (MDA-MB-231), colon adenocarcinoma (HT-29), endometrial adenocarcinoma (ECC-1), prostate cancer (DU-145 and PC-3), normal embryonic kidney (HEK-293), normal prostate epithelium (PNT-1A), and normal retinal pigment epithelium (ARPE-19) cells. As recommended by ATCC, cells were subjected to propagation using DMEM-F12 and RPMI-1640 media, with supplements 10% fetal bovine serum, L-glutamine (2 mM), penicillin (100 U/mL) and streptomycin ([…]) in a humidified atmosphere (5% CO2) at 37 °C. When the cultures reached 70–80% confluence, the cells were harvested using 0.25% trypsin (Sigma).
(§2) Cytotoxic activities were based on the reduction of (3–(4,5-dimethylthiazol-2-yl)-2,5-diphenyltetrazolium bromide) (MTT) by mitochondrial dehydrogenase of viable cells to give a blue formazan product which can be measured spectrophotometrically by UV–Vis measurements. MTT colorimetric assays were performed using 96 well plates. The cells were seeded in a 96 well plate at concentration 5.0 × 10^4 cells/well and incubated at 37 °C for 24 h. After treatment with various concentrations of the test compound (1, 5, 10, 25, 50, 100 and 200 μM), the cells were incubated for an additional 48 h at 37 °C. After incubation, the medium was removed, and the cells in each well were incubated with 100 μL MTT solution (5 mg/mL) for 4 h at 37 °C. MTT solutions were then discarded, and 100 μL DMSO were added to dissolve insoluble formazan crystals. Optical densities were measured at 570 nm (Varioskan Flash Multimode Reader, Thermo, Waltham, MA). Data were obtained from triplicate wells. Cytotoxic effects were determined in reference to negative controls (vehicle treated cells). Cytotoxicity was expressed as the mean percentage increase relative to the unexposed control (mean ± SD). All statistical analyses were performed using SPSS package program for Windows (Version 20, Chicago, IL). Control values were set to 0% cytotoxicity. Cytotoxicity data, where appropriate, were fitted to sigmoidal curves and a four-parameter logistic model was used to calculate the IC50 values, the concentration of material causing 50% inhibition, compared to the untreated controls. 5-Fluorouracil (5-FU) was also used as a control agent[21]^,[22].
On the technique in general: Tetrazolium dyes change colour on reduction, which living cells bring about.

The subject of experiment [2] is prostate cancer (PC-3) cells. Put plainly: MTT cytotoxicity assay, PC-3. Format: cell-based, human. Particulars: 48 h, means of three independent experiments.
Source text: as §1, §2

The test system of experiment [3] is normal embryonic kidney (HEK-293) cells. In words: MTT cytotoxicity assay, HEK-293. It counts as cell-based, human. Particulars: 48 h, means of three independent experiments.
Source text: as §1, §2

The subject of experiment [4] is normal prostate epithelium (PNT-1A) cells. In words: MTT cytotoxicity assay, PNT-1A. It counts as cell-based, human. Particulars: normal cell, 48 h, means of three independent experiments, read-out: IC50 PNT-1A.
Source text: as §1, §2

For experiment [5], the system named is breast adenocarcinoma (MDA-MB-231) cells. In words: MTT cytotoxicity assay, MDA-MB-231. It counts as cell-based, human. Conditions: 48 h, means of three independent experiments.
Source text: as §1, §2

Experiment [6] has as its system endometrial adenocarcinoma (ECC-1) cells. Put plainly: MTT cytotoxicity assay, ECC-1. Format: cell-based, human. Particulars: 48 h, means of three independent experiments.
Source text: as §1, §2

In experiment [7] the test system is colon adenocarcinoma (HT-29) cells. In words: MTT cytotoxicity assay, HT-29. Particulars: 48 h, means of three independent experiments. Format: cell-based, human.
Source text: as §1, §2

Experiment [8] relates to human colorectal adenocarcinoma (DLD-1) cells. Put plainly: MTT cytotoxicity assay, DLD-1. Format: cell-based. Particulars: 48 h, means of three independent experiments.
Source text: as §1, §2

In experiment [9] the test system is prostate cancer (DU-145) cells. Put plainly: MTT cytotoxicity assay, DU-145. It counts as cell-based, human. Conditions: cancer cell, MTT, 48 h, means of three independent experiments, read-out: IC50 DU-145.
Source text: as §1, §2

For experiment [10], the system named is normal retinal pigment epithelium (ARPE-19) cells. In words: MTT cytotoxicity assay, ARPE-19. It counts as cell-based, human. Conditions: 48 h, means of three independent experiments.
Source text: as §1, §2

Where [11] appears, read: Homo sapiens, PC-3, cancer cell.
Where [12] appears, read: Homo sapiens, HEK293, normal cell.
Setting [13] is: Homo sapiens, MDA-MB-231, cancer cell.
The mark [14] stands for this setting: Homo sapiens, ECC-1, cancer cell.
Where [15] appears, read: Homo sapiens, HT-29, cancer cell.
Where [16] appears, read: Homo sapiens, DLD-1, cancer cell.
Where [17] appears, read: Homo sapiens, ARPE-19, normal cell.

Molecules are shown by their SMILES. Read-outs that look alike come from different tables or passages of the source.

Consider six compounds from PMC6211257, “Synthesis and cytotoxic activities of novel copper and silver complexes of 1,3-diaryltriazene-substituted sulfonamides” (Journal of Enzyme Inhibition and Medicinal Chemistry, 2018).

Broadly, the IC50 is the concentration at which inhibition is half-maximal. Take `Cc1cc(C)cc(NN=Nc2cccc(S(N)(=O)=O)c2)c1` [Compound L5, 3-(3-(3,5-dimethylphenyl)triaz-1-en-1-yl)benzenesulfonamide]: the IC50 was 65.1 ± 4.5 µM in [1] (Homo sapiens, HeLa); 131 ± 12.4 µM in [2] (setting [11]); 103 ± 10.2 µM in experiment [3] (setting [12]); 177 ± 20.5 µM in experiment [4] (Homo sapiens, PNT1A); 144 ± 18.6 µM in experiment [5] (setting [13]); 132 ± 13.1 µM in experiment [6] (setting [14]). The IC50 in [7] (setting [15]) was 112 ± 16.5 µM; in experiment [8] (setting [16]), 224 ± 12.4 µM; in experiment [9] (Homo sapiens, DU-145) it was 97.8 ± 9.7 µM; in experiment [10] (setting [17]) it was > 300 µM.

With `NS(=O)(=O)c1cccc(N/N=N/c2ccc(C(=O)O)cc2)c1` [Compound L3, 4–(3–(3-sulfamoylphenyl)triaz-2-en-1-yl) benzoic acide], the IC50 was > 300 µM in experiment [1] (Homo sapiens, HeLa); > 300 µM in experiment [2] (setting [11]); > 300 µM in experiment [3] (setting [12]); > 300 µM in experiment [4] (Homo sapiens, PNT1A); > 300 µM in experiment [5] (setting [13]); 197 ± 23.5 µM in [6] (setting [14]). Besides, the IC50 was > 300 µM in experiment [7] (setting [15]); > 300 µM in [8] (setting [16]); 186 ± 20.6 µM in [9] (Homo sapiens, DU-145); > 300 µM in experiment [10] (setting [17]).

Regarding `CC(=O)[O][Ag][N](N=Nc1ccc(F)cc1)c1cccc(S(N)(=O)=O)c1` [Compound L1-Ag], the IC50 was > 300 µM in [1]; > 300 µM in experiment [3] (normal cell); 210 ± 20.9 µM in experiment [4]; 96.8 ± 9.6 µM in experiment [5] (cancer cell); 207 ± 25.6 µM in experiment [6] (cancer cell); 186 ± 16.5 µM in [7] (cancer cell). Also, the IC50 was 279 ± 12.9 µM in [8] (cancer cell), 137 ± 16.5 µM in experiment [9] and > 300 µM in experiment [10] (normal cell).

Regarding `COc1ccc(N=N[N]([Ag][O]C(C)=O)c2cccc(S(N)(=O)=O)c2)cc1OC` [Compound L4-Ag], the IC50 in experiment [1] is 139 ± 28 µM; in experiment [2] (cancer cell), 137 ± 15.8 µM; in experiment [3] (normal cell) it was 5.5 ± 0.6 µM; in [4] it was 139 ± 16.5 µM; in [5] (cancer cell), > 300 µM; in [6] (cancer cell) it was 104 ± 10.3 µM. In addition, the IC50 in experiment [7] (cancer cell) turned out to be 241 ± 28.5 µM; in experiment [8] (cancer cell) it was 173 ± 10.3 µM; in experiment [9], 237 ± 28.5 µM; in experiment [10] (normal cell), 285 ± 30.5 µM.

On to `CC(=O)[O][Cu-]1([O]C(C)=O)[N](c2cccc(S(N)(=O)=O)c2)N=[N+]1c1ccc(C(=O)O)cc1` [Compound L3-Cu], for which the IC50 was determined as 63.9 ± 4.3 µM in [1]; 196 ± 22.6 µM in experiment [2] (cancer cell); 135 ± 15.6 µM in [3] (normal cell); 120 ± 13.5 µM in experiment [4]; 48.3 ± 2.5 µM in [5] (cancer cell); 362 ± 38.1 µM in experiment [6] (cancer cell). The IC50 was 205 ± 20.3 µM in experiment [7] (cancer cell), 65.2 ± 2.5 µM in experiment [8] (cancer cell), 58.3 ± 6.4 µM in experiment [9] and > 300 µM in experiment [10] (normal cell).

Regarding `CC(=O)[O][Cu-]1([O]C(C)=O)[N](c2cccc(S(N)(=O)=O)c2)N=[N+]1c1cc(C)cc(C)c1` [Compound L5-Cu], the IC50 in experiment [1] turned out to be 15.2 ± 1 µM; in experiment [2] (cancer cell), 79.2 ± 8.5 µM; in experiment [3] (normal cell) it was 36.3 ± 3.6 µM; in experiment [4], 46.4 ± 4.6 µM; in experiment [5] (cancer cell), 26 ± 2.5 µM; in experiment [6] (cancer cell), 97.6 ± 9.7 µM. For the same compound, the IC50 amounted to 84.4 ± 8.4 µM in experiment [7] (cancer cell), 58.8 ± 3.9 µM in experiment [8] (cancer cell), 32.4 ± 3.2 µM in experiment [9] and 84.3 ± 8.4 µM in [10] (normal cell).
